Results: ChEMBL document CHEMBL5380808, “Design, Synthesis, and Biological Activity of Marinacarboline Analogues as STAT3 Pathway Inhibitors for Docetaxel-Resistant Triple-Negative Breast Cancer” (J Med Chem, 2023)
pIC50: −log10 of the molar value. Active and inactive are the calls of the source. The calls are words filed in the database; no cut-off is given here.

Experiments:
[1] = Cytotoxicity against human MRC5 cells assessed as reduction in cell viability incubated for 72 hrs by sulforhodamine B assay; type: toxicity, cell-based
[2] = Antiproliferative activity against […] cells assessed as reduction in cell viability incubated for 72 hrs by MTT assay; type: functional, cell-based
[3] = Induction of cell cycle arrest in docetaxel-resistant human MDA-MB-231-DTR cells assessed as accumulation at G2/M phase at 5 uM incubated for 12 hrs by PI staining based flow cytometry analysis (reference value: 13.54%); type: functional
[4] = tested on: MDA-MB-231; assay: Induction of apoptosis in docetaxel-resistant human MDA-MB-231-DTR cells assessed as upregulation of cleaved-caspase-3 expression level at 2.5 to 10 uM incubated for 48 hrs by Western blot analysis; type: functional, cell-based; settings: dose 2.5-10 µM
[5] = tested on: MDA-MB-231; assay: Antiproliferative activity against human MDA-MB-231 cells assessed as reduction in cell viability incubated for 72 hrs by sulforhodamine B assay; type: functional, cell-based; settings: MDA-MB-231, 72 h
[6] = tested on: MDA-MB-231; assay: Antitumor activity against docetaxel-resistant human MDA-MB-231-DTR cells xenografted in BALB/c mouse assessed as tumor growth inhibition at 10 mg/kg, ip daily for 12 days; type: functional, organism-based; settings: time 12.0 day
[7] = tested on: MDA-MB-231; assay: Antitumor activity against docetaxel-resistant human MDA-MB-231-DTR cells xenografted in BALB/c mouse assessed as upregulation of E-cadherin level in tumor tissue at 10 mg/kg, ip daily for 12 days by Immunohistochemical analysis; type: functional, organism-based; settings: time 12.0 day
[8] = target: T1, Signal transducer and activator of transcription 1-alpha/beta (Homo sapiens) (UniProt P42224); assay: Inhibition of STAT1 phosphorylation at S727 residue in docetaxel-resistant human MDA-MB-231-DTR cells assessed as decrease in phosphorylated STAT1 level at 2.5 to 10 uM incubated for 24 hrs by Western blot analysis; type: cell-based; settings: dose 2.5-10 µM
T1 sequence (whole entry): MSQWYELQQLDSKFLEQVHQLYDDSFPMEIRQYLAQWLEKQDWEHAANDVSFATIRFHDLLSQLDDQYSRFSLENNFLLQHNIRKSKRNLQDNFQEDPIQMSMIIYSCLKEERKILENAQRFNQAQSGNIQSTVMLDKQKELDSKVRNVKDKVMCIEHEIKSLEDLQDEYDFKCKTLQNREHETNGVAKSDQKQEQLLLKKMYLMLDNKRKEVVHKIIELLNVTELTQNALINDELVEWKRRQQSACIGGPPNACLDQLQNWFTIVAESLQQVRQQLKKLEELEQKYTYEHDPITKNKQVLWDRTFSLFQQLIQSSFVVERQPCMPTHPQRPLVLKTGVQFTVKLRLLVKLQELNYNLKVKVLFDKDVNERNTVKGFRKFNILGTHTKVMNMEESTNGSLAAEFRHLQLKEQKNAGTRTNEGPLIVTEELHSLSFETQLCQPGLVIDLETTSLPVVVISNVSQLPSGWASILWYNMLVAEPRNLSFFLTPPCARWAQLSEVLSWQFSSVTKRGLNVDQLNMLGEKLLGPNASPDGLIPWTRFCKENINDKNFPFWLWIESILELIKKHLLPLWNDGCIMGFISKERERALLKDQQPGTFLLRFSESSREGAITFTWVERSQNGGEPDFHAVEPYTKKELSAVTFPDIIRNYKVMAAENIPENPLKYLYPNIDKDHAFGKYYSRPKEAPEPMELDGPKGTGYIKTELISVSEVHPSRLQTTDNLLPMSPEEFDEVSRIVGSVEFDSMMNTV

[9] = Synergistic antiproliferative activity against docetaxel-resistant human MDA-MB-231-DTR cells assessed as combination index at 4 uM incubated for 72 hrs in presence of 1 uM of docetaxel by Chou-Talalay method; type: functional
[10] = Induction of cell cycle arrest in docetaxel-resistant human MDA-MB-231-DTR cells assessed as accumulation at G2/M phase at 5 uM incubated for 36 hrs by PI staining based flow cytometry analysis (reference value: 13.16%); type: functional
[11] = tested on: MDA-MB-231; assay: Inhibition of cell migration in docetaxel-resistant human MDA-MB-231-DTR cells assessed as upregulation of E-cadherin expression level at 3 to 6 uM incubated for 24 hrs by Western blot analysis; type: functional, cell-based; settings: dose 3-6 µM
[12] = Synergistic antiproliferative activity against docetaxel-resistant human MDA-MB-231-DTR cells assessed as combination index at 8 uM incubated for 72 hrs in presence of 1 uM of docetaxel by Chou-Talalay method; type: functional
[13] = Induction of cell cycle arrest in docetaxel-resistant human MDA-MB-231-DTR cells assessed as accumulation at subG1 phase at 2.5 uM incubated for 36 hrs by PI staining based flow cytometry analysis (reference value: 0.52%); type: functional
[14] = Selectivity index, ratio of IC50 for cytotoxicity against human MRC5 cells to IC50 for antiproliferative activity against human MDA-MB-231 cells; type: toxicity, cell-based; settings: MRC5 cells and MDA-MB-231 cells, read-out: Ratio IC50
[15] = Induction of cell cycle arrest in docetaxel-resistant human MDA-MB-231-DTR cells assessed as accumulation at G0/G1 phase at 5 uM incubated for 36 hrs by PI staining based flow cytometry analysis (reference value: 75.49%); type: functional
[16] = Synergistic antiproliferative activity against docetaxel-resistant human MDA-MB-231-DTR cells assessed as combination index at 2 uM incubated for 72 hrs in presence of 1 uM of docetaxel by Chou-Talalay method; type: functional
[17] = Synergistic antiproliferative activity against docetaxel-resistant human MDA-MB-231-DTR cells assessed as combination index at 2 uM incubated for 72 hrs in presence of 4 uM of docetaxel by Chou-Talalay method; type: functional
[18] = Induction of cell cycle arrest in docetaxel-resistant human MDA-MB-231-DTR cells assessed as accumulation at subG1 phase at 5 uM incubated for 48 hrs by PI staining based flow cytometry analysis (reference value: 0.41%); type: functional
[19] = tested on: MDA-MB-231; assay: Induction of cell cycle arrest at G2/M phase in docetaxel-resistant human MDA-MB-231-DTR cells assessed as downregulation of Cdc25C expression level at 2.5 to 10 uM incubated for 36 hrs by Western blot analysis; type: functional, cell-based; settings: dose 2.5-10 µM
[20] = Synergistic antiproliferative activity against docetaxel-resistant human MDA-MB-231-DTR cells assessed as combination index at 8 uM incubated for 72 hrs in presence of 4 uM of docetaxel by Chou-Talalay method; type: functional
[21] = Induction of cell cycle arrest in docetaxel-resistant human MDA-MB-231-DTR cells assessed as accumulation at G0/G1 phase at 2.5 uM incubated for 36 hrs by PI staining based flow cytometry analysis (reference value: 74.77%); type: functional
[22] = tested on: MDA-MB-231; assay: Inhibition of cell invasion in docetaxel-resistant human MDA-MB-231-DTR cells at 3 to 6 uM incubated for 24 hrs by transwell invasion assay; type: functional, cell-based; settings: dose 3-6 µM
[23] = tested on: MDA-MB-231; assay: Antitumor activity against docetaxel-resistant human MDA-MB-231-DTR cells xenografted in BALB/c mouse assessed as downregulation of vimentin level in tumor tissue at 10 mg/kg, ip daily for 12 days by Immunohistochemical analysis; type: functional, organism-based; settings: time 12.0 day
[24] = Antiproliferative activity against docetaxel-resistant human MDA-MB-231-DTR cells assessed as reduction in cell viability incubated for 72 hrs by MTT assay; type: functional, cell-based; settings: MDA-MB-231, 72 h

SMILES: O=C(NCCc1c[nH]c2ccccc12)c1cc2c([nH]c3ccccc32)c(C(=O)c2ccc(Br)cc2)n1
- IC50 at 72 h [1]: 33.2 µM
- pIC50 [2]: 5.49
- Activity [3]: 17.91%
- Activity [4]: Active
- pIC50 [5]: 5.51
- Activity [6]: Active
- Activity [7]: Active
- inhibition [8]: inactive
- CI [9]: 0.38
- Activity [10]: 24.58%
- inhibition [11]: Active
- CI [12]: 0.66
- Activity [13]: 0.57%
- selectivity ratio [14]: 10.7
- Activity [15]: 55.56%
- CI [16]: 0.26
- CI [17]: 0.32
- Activity [18]: 19.53%
- Activity [19]: Active
- CI [20]: 0.32
- Activity [21]: 62.36%
- inhibition [22]: Dose-Dependent Effect
- Activity [23]: Active
- pIC50 [24]: 5.49
